Assay results: patent publication US5539119A, “Indole derivatives” (priority 1990, dated 1996)
Where two headings read alike, the source gives them in different places.

Key:
δ opioid receptor [1] = biological target: T1, δ opioid receptor (Cavia porcellus, UniProt A0A286XTF2); assay: Bonding (binding) assay, guinea pig brain homogenate, DPDPE (hot) / DADLE (cold)
T1 construct: the homogenate of the brain of a guinea pig; from tissue; host or cells: guinea pig brain homogenate
Protocol: (§1) In the test for bonding, the homogenate of the brain of a guinea pig was diluted with Tris buffer in a ratio calculated to give to the produced solution a protein content of 0.7 mg per prot/tube was used as incorporated in the reaction solution. With regard to ligands for binding assay, 3H-DAGO (μ), DPDPE (δ), and EKC (κ) were used for hot samples and naloxone (μ), DADLE (δ), and naloxone (κ) for cold samples.

δ opioid receptor [2] = assay: as above; settings: μ/δ
Protocol: as §1

κ opioid receptor = biological target: T2, κ opioid receptor (Cavia porcellus, UniProt P41144); assay: Bonding (binding) assay, guinea pig brain homogenate, EKC (hot) / naloxone (cold)
T2 construct: the homogenate of the brain of a guinea pig; from tissue; host or cells: guinea pig brain homogenate
T2 sequence (P41144 whole entry): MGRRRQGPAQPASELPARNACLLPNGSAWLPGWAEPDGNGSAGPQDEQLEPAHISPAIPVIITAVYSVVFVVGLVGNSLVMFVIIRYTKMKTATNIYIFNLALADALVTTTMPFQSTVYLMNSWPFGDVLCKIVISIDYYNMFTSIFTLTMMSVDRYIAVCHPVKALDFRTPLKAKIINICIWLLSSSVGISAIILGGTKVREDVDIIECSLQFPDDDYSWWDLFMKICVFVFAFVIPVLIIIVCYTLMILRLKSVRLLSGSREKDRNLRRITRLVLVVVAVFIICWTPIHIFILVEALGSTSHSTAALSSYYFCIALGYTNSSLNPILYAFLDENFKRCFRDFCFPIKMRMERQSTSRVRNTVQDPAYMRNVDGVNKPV
Protocol: as §1

[3] = test system: Guinea Pig Ileal Longitudinal Muscle; assay: GPI, shift of the compound's effect by naloxone or nor-BNI; parameters: GPI nor-BN1 Ke: unit not given here
Protocol: (§2) The test of the compounds of this invention for agonist and antagonist activities was carried out in according to the method proposed by Takemori et al. (Takemori, A, E. et al.: Eur. J. Pharmacal., 1982, 85, 163) using Guinea Pig Ileal Longitudinal Muscle Mouse Vas Deferens (MVD).

[4] = test system: Guinea Pig Ileal Longitudinal Muscle; assay: Agonist activity in Guinea Pig Ileal Longitudinal Muscle (GPI); settings: guinea pig ileum
Protocol: as §2

mouse T cells = assay: Inhibiting proliferation of mouse T cells by Con-A stimulation ([3H]thymidine uptake, spleen cells); type: cell-based
Protocol: Now, the immunosuppressive activity of the compound 19 which is representative of the compounds of the present invention will be shown. Activity in inhibiting proliferation of mouse T cells by Con-A stimulation
A monocellular suspension was prepared by sterilely removing the spleen from a mouse and passing the spleen through a mesh. This suspension was adjusted to a concentration of 5×10^6 cells/ml and dispensed by the unit of 100 μl in all the individual wells of a 96-well plate. […] Eight hours before completion of the incubation, [^3 H]thymidine was added to the contents of the wells in a fixed ratio of 2 μCi/10 μl/well. Eight hours after this addition, the cells in the wells were collected on filter papers with the aid of a cell harvester. The cells on the filter papers were dried, then combined with a toluene type scintillator, and counted for the radioactivity of the [^3 H] thymidine occluded in the cells by means of a scintillation counter.
The ratio of suppression of T cell proliferation was calculated in accordance with the following formula:
Rate of suppression=(Radioactivity in the absence of compound-Radioactivityafter addition of compound)/(Radioactivity in the absence of compound-Radioactivity in the absence of ConA)

δ-receptor = biological target: T3, δ-receptor (Mus musculus, UniProt P32300); assay: Antagonism to DPDPE in Mouse Vas Deferens (MVD)
T3 construct: from tissue; host or cells: mouse vas deferens
T3 sequence (P32300 whole entry): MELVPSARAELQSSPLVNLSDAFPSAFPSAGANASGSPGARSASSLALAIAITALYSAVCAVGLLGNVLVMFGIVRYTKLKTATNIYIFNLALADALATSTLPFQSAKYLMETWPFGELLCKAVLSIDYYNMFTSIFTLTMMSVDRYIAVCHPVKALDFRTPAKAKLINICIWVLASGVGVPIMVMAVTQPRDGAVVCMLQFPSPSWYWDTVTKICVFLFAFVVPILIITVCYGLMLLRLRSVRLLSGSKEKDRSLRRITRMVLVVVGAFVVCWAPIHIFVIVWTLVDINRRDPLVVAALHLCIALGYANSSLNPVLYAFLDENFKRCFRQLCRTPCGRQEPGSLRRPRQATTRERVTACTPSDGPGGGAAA

μ opioid receptor = biological target: T4, μ opioid receptor (Cavia porcellus, UniProt A0ACM8Q262); assay: Bonding (binding) assay, guinea pig brain homogenate, 3H-DAGO (hot) / naloxone (cold); settings: for Ki: guinea pig brain homogenate; for Ki ratio κ/μ: selectivity ratio
T4 construct: 3H-DAGO (DAMGO) radioligand, cold naloxone
T4 sequence (A0ACM8Q262 1-400): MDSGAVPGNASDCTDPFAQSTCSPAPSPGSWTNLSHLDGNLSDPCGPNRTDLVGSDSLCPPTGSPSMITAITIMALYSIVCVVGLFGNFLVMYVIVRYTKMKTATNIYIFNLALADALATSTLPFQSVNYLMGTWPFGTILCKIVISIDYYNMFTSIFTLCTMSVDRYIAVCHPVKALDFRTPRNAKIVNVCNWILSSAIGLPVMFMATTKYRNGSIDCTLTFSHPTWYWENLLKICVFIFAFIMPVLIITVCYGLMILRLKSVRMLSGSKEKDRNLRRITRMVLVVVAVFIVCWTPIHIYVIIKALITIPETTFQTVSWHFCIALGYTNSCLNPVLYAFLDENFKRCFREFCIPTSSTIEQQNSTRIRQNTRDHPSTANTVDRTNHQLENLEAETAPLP
Protocol: as §1

Mouse Vas Deferens (MVD) = assay: Agonist activity in Mouse Vas Deferens (MVD); settings: read-out: MVD IC50
Protocol: as §2

[5] = Mus musculus, T-cell, ConA-stimulated mouse T cells, read-out: IC50, activity in inhibiting T cell hyperplasia (Table 3)
[6] = MVD Antagonism to DPDPE, pA2, (20 nM)
[7] = MVD Antagonism to DPDPE, pA2, (50 nM)
[8] = guinea pig brain homogenate, read-out: Bonding assay Ki value δ
[9] = Mus musculus, T-cell, 48 h, read-out: Ratio of suppression of T cell proliferation
[10] = MVD Antagonism to DPDPE at 100 nM, pA2, at 100 nM

T1 sequence (A0A286XTF2 1-366): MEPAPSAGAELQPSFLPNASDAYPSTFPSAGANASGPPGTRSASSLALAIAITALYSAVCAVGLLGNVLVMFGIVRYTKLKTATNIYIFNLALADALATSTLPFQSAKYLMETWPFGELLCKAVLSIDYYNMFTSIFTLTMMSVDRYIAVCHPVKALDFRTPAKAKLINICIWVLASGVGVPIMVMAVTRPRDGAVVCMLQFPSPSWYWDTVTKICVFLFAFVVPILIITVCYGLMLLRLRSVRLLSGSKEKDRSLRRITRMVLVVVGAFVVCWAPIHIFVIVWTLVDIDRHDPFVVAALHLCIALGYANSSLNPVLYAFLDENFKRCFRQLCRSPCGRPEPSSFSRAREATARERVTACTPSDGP

| SMILES | Ki (δ opioid receptor [1]) | Ki ratio μ/δ (δ opioid receptor [2]) | Ki ratio μ/δ (δ opioid receptor [2]; selectivity ratio) | Ki (κ opioid receptor) | GPI naloxone DR [3] | GPI nor-BN1 DR [3] | GPI nor-BN1 Ke [3] | GPI nor-BN1 pA2 [3] | IC50 [4] | IC50 (mouse T cells; [5]) | MVD Antagonism to DPDPE, DR (δ-receptor; (50 nM)) | Kb (δ-receptor; [6]) | Kb (δ-receptor; [7]) | Ki (μ opioid receptor) | Ki ratio κ/μ (μ opioid receptor) | also measured |
| --- | --- | --- | --- | --- | --- | --- | --- | --- | --- | --- | --- | --- | --- | --- | --- | --- |
| Oc1cccc([C@]23CCN(CC4CC4)C[C@@H]2Cc2c([nH]c4c(Cl)cccc24)C3)c1 (relative stereo) [Compound 40, 2-Cyclopropylmethyl-4aα-(3-hydroxyphenyl)-7-chloro-1,2,3,4,4a,5,11,11aβ-octahydro-6H-indolo[2,3-g]isoquinoline] | 8.31 nM | 113 | 199 | 936 nM | 2.17 | 2.05 | 19.0 | 7.72 | 11700 nM | 2.6 µg/mL | 18.5 | 10 nM | 2.88 nM | 1650 nM | 0.57 | MVD Antagonism to DPDPE, DR (δ-receptor; (20 nM)): 3.02 |
| Oc1cccc([C@]23CCN(CC4CC4)C[C@@H]2Cc2c([nH]c4ccccc24)C3)c1 (single isomer, unassigned) [Compound 52, (-)-2-Cyclopropylmethyl-4aα-(3-hydroxyphenyl)-1,2,3,4,4a,5,11,11aβ-octahydro-6H-indolo[2,3-g]isoquinoline] | – | – | – | 2280 nM | 1.06 | 1.03 | – | – | 16400 nM | – | – | – | – | 81100 nM | – | Ki (δ opioid receptor [1]; [8]): 135 nM; IC50, activity in inhibiting T cell hyperplasia (Table 3) (mouse T cells; ConA-stimulated mouse T cells): 3.5 µg/mL; Kb (δ-receptor; at 100 nM): 158 nM; MVD Antagonism to DPDPE at 100 nM, Ke (δ-receptor; at 100 nM): 158 |
| Oc1ccc2c3c1O[C@H]1c4[nH]c5ccccc5c4C[C@@]4(O)[C@@H](C2)N(CC2CC2)CC[C@]314 [NTI, nartol indole, reference compound] | – | – | 100 | – | – | – | – | – | – | – | – | – | – | – | – | inhibition at 0.1 µg/mL (mouse T cells; [9]): 0%; inhibition at 0.5 µg/mL (mouse T cells; [9]): 0%; inhibition at 0.75 µg/mL (mouse T cells; [9]): 0%; inhibition at 1 µg/mL (mouse T cells; [9]): 0%; inhibition at 2.5 µg/mL (mouse T cells; [9]): 0%; inhibition at 5 µg/mL (mouse T cells; [9]): 15%; inhibition at 7.5 µg/mL (mouse T cells; [9]): 35%; inhibition at 10 µg/mL (mouse T cells; [9]): 62%; inhibition at 12.5 µg/mL (mouse T cells; [9]): 85%; inhibition at 15 µg/mL (mouse T cells; [9]): 98%; inhibition at 17.5 µg/mL (mouse T cells; [9]): 100%; inhibition at 20 µg/mL (mouse T cells; [9]): 100%; IC50 (mouse T cells; Mus musculus, T-cell, read-out: IC50 value, immunosuppression (text to Table 2)): 8.6 µg/mL |
| Oc1cccc([C@]23CCN(CC4CC4)C[C@]2(O)Cc2c([nH]c4ccccc24)C3)c1 (relative stereo) [Compound 56] | 1.71 nM | 906 | 423 | 1550 nM | – | – | – | – | – | 14 µg/mL | – | – | – | 723 nM | 2.14 | – |
| Cn1c2c(c3ccccc31)C[C@H]1CN(CC3CC3)CC[C@]1(c1cccc(O)c1)C2 (relative stereo) [Compound 25, 2-Cyclopropylmethyl-4aα-(3-hydroxyphenyl)-1,2,3,4,4a,5,11,11aβ-octahydro-6-methyl-indolo[2,3-g]isoquinoline] | 2.77 nM | 52.0 | 552 | 144 nM | 0.55 | 0.77 | – | – | 14500 nM | 3 µg/mL | – | – | – | 1530 nM | 0.09 | – |
| Oc1cccc([C@]23CCN(CC4CC4)C[C@@H]2Cc2c([nH]c4ccccc24)C3)c1 (single isomer, unassigned) [Compound 47, (+)-2-Cyclopropylmethyl-4aα-(3-hydroxyphenyl)-1,2,3,4,4a,5,11,11aβ-octahydro-6H-indolo[2,3-g]isoquinoline] | 0.37 nM | – | – | 388 nM | 1.06 | 1.29 | – | – | 64500 nM | 3.8 µg/mL | 30.5 | 5.75 nM | 1.7 nM | 1170 nM | – | MVD Antagonism to DPDPE, DR (δ-receptor; (20 nM)): 4.44 |
| Oc1cccc([C@]23CCN(CC4CC4)C[C@@H]2Cc2c([nH]c4c(F)cccc24)C3)c1 (relative stereo) [Compound 29, 2-Cyclopropylmethyl-4aα-(3-hydroxyphenyl)-7-fluoro-1,2,3,4,4a,5,11,11aβ-octahydro-6H-indolo[2,3-g]isoquinoline] | 1.91 nM | 194 | 618 | 370 nM | 2.50 | 2.06 | 18.9 | 7.72 | 6640 nM | 0.9 µg/mL | 34.1 | 3.89 nM | 1.51 nM | 1180 nM | 0.31 | MVD Antagonism to DPDPE, DR (δ-receptor; (20 nM)): 6.22 |
| CN1CC[C@]2(c3cccc(O)c3)Cc3[nH]c4ccccc4c3C[C@@]2(O)C1 (relative stereo) [Compound 54, 2-Methyl-4aα-(3-hydroxyphenyl)-11aβ-hydroxy-1,2,3,4,4a,5,11,11a-octahydro-6H-indolo[2,3-q]isoquinoline] | 2.75 nM | – | – | 662 nM | 1.30 | 3.30 | 8.70 | 8.06 | 5960 nM | – | 22.4 | 5.75 nM | 1.7 nM | – | – | IC50 (Mouse Vas Deferens (MVD)): 10200 nM |
| C=CCN1CC[C@]2(c3cccc(O)c3)Cc3[nH]c4ccccc4c3C[C@H]2C1 (relative stereo) [Compound 31, 2-Allyl-4aα-(3-hydroxyphenyl)-1,2,3,4,4a,5,11,11aβ-octahydro-6H-indolo[2,3-g]isoquinoline] | 2.97 nM | 754 | > 9090 | 2240 nM | 0.93 | 0.98 | – | – | 20500 nM | 2.6 µg/mL | – | – | – | 27000 nM | 0.09 | Kb (δ-receptor; [10]): 12.9 nM; MVD Antagonism to DPDPE at 100 nM, DR (δ-receptor; at 100 nM): 4.84 |
| CN1CC[C@]2(c3cccc(O)c3)Cc3[nH]c4ccc(Br)cc4c3C[C@H]2C1 (relative stereo) [Compound 10, 2-Methyl-4aα-(3-hydroxyphenyl)-9-bromo-1,2,3,4,4a,5,11,11aβ-octahydro-6H-indolo[2,3-g]isoquinoline] | – | – | – | – | 0.92 | 1.31 | 64.5 | 7.19 | 14300 nM | – | – | – | – | – | – | IC50 (Mouse Vas Deferens (MVD)): 21900 nM; Ki (δ opioid receptor [1]; [8]): 1390 nM |
| Oc1cccc([C@]23CCN(CC4CC4)C[C@@H]2Cc2c([nH]c4ccc(F)cc24)C3)c1 (relative stereo) [Compound 37, 2-Cyclopropylmethyl-4aα-(3-hydroxyphenyl)-9-fluoro-1,2,3,4,4a,5,11,11aβ-octahydro-6H-indolo[2,3-g]isoquinoline] | 6.94 nM | 49.3 | 223 | 342 nM | 1.19 | 1.26 | – | – | 10500 nM | 1.9 µg/mL | – | – | – | 1550 nM | 0.22 | Kb (δ-receptor; [10]): 6.31 nM; MVD Antagonism to DPDPE at 100 nM, DR (δ-receptor; at 100 nM): 8.93 |
